Experimental data as given in PMC8452690, “Structural basis for small molecule targeting of Doublecortin Like Kinase 1 with DCLK1-IN-1” (Communications Biology, 2021).
Changes are numbered by the printed parent chain. “And” between values parts separate entries of the source, which are not always exact repeats. Identical values can stand only once. Like-named read-outs stand apart in the source and are kept apart here. Marks after values point to notes of the source that are not given here.

Legend:
DCLK1-FL1Δ D511N = target: T1, DCLK1-FL1Δ D511N (Homo sapiens, UniProt O15075, D511N); assay: SPR binding to immobilised DCLK1-FL1Δ D511N (non-phosphorylated); conditions: for Kd: 18 °C, DCLK1 FL1Δ D511N immobilised, mean ± SEM
T1 construct: DCLK1-FL1Δ (residues 50-686); 8XHis tag with TEV protease cleavage site (N); made in house; host or cells: Escherichia coli C41(DE3)
T1 sequence (O15075 50-686 D511N): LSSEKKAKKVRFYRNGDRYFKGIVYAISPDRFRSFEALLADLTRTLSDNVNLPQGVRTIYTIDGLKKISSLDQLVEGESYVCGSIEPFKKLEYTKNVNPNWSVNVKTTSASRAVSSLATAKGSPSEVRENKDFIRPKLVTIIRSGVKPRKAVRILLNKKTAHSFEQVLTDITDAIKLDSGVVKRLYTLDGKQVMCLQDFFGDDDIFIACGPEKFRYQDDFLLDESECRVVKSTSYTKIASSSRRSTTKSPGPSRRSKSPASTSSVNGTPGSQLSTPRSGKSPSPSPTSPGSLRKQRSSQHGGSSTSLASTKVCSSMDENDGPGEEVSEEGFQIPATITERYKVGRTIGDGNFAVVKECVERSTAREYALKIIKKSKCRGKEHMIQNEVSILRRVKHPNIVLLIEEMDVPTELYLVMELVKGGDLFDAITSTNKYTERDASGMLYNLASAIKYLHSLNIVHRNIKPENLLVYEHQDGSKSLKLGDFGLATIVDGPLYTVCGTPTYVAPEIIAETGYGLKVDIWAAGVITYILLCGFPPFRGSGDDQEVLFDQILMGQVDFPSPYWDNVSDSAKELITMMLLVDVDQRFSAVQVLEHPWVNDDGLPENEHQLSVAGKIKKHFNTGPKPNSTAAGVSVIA
Procedure: (§1) SPR studies were carried out on a Biacore 2000 instrument (Cytivia). Proteins were immobilised at 25 °C using standard amine coupling to a CM5 chip (Cytivia) in immobilisation buffer consisting of 10 mM HEPES pH 7.4, 150 mM NaCl, 1 mM TCEP, 0.005% Tween P20, 1% (v/v) DMSO. To the active flow, cells were coupled either DCLK1-FL1Δ D511N or WT to a final density of approximately 7000 RU, followed by surface deactivation with 1 M ethanolamine. For each protein, coupling was performed at a concentration of 2 µM protein in 10 mM sodium acetate buffer pH 4.0, 1% (v/v) DMSO final, in the presence 10 µM of the moderate affinity compound FMF-03-149-01 (IC50 ~400 nM)[28] to help to stabilise the kinase domain during immobilsiation at low pH. A blank immobilisation was performed on the reference flow cell.
(§2) Binding experiments were performed at 18 °C in running buffer consisting of 20 mM HEPES, pH 7.4, 150 mM NaCl, 1 mM tris(2-carboxyethyl)phosphine (TCEP), 0.005% (v/v) Tween-P20, and 2% (v/v) DMSO. Compounds (10 mM stocks in 100% DMSO) were diluted in DMSO to 500 µM (DCLK1-NEG) or 25 µM (all other compounds) then in running buffer (without DMSO) to achieve the starting concentration with a final DMSO concentration of 2% (v/v). Samples were then serially titrated in running buffer containing 2% (v/v) DMSO to prepare each final concentration series (seven-point, three-fold serial dilution, 10 µM−13.7 nM for DCLK1-NEG, or 500−0.68 nM for all other compounds). Solutions were injected in multi-cycle format (in duplicate) without regeneration (contact time 80 s, flow rate 75 μL/min, dissociation time 600 s), with an extra wash (50% DMSO) after each injection.
(§3) Steady-state/kinetic binding data were fitted using the S200 BIAevaluation software (GE Healthcare). Sensorgrams from reference surfaces and blank injections were subtracted from the raw data (double-referencing), followed by solvent correction. Kinetic rate constants (kon and koff values) were obtained by fitting to 1:1 Langmuir binding model. Reported binding data represent mean ± SEM for three or four independent experiments. The dissociative half-life life (t1/2) for each inhibitor complex with DCLK1 was calculated from the fitted dissociation rate constant (koff), according to the equation 1 (t1/2 = ln(2)/koff.)

DCLK1-FL1Δ WT = target: T2, DCLK1-FL1Δ WT (Homo sapiens, UniProt O15075); assay: SPR binding to immobilised DCLK1-FL1Δ WT (phosphorylated); conditions: for Kd: SPR, 18 °C, DCLK1 FL1Δ WT immobilised, mean ± SEM
T2 sequence (O15075 50-686 isoform O15075-2): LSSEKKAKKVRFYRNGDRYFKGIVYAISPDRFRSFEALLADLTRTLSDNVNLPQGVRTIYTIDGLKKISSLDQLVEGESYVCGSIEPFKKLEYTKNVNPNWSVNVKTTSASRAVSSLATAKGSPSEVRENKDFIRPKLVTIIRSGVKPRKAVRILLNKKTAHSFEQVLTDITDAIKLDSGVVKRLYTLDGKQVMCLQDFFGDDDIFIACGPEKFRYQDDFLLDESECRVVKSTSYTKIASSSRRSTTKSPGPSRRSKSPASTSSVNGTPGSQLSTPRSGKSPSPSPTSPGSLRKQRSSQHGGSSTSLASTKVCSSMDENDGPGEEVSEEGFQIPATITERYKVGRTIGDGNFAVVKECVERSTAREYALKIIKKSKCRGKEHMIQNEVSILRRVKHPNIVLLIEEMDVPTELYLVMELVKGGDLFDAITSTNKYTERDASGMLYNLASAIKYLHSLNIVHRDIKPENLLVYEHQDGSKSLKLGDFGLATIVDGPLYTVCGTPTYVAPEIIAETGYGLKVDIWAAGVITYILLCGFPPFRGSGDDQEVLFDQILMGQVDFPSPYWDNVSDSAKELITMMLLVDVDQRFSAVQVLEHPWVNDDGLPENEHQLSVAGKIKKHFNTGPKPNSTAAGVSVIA
Procedure: as §1, §2, §3

DCLK1-KD = target: DCLK1-KD; set-up: method as in PMID 32251410; conditions: read-out: KD by ITC; cited from earlier work
[1] = target: T3, DCLK1-FL1Δ D511N tubulin polymerisation (MAP function) (Homo sapiens, UniProt O15075, D511N); assay: Tubulin polymerisation and pelleting assay with DCLK1-FL1Δ D511N; type: biochemical
T3 construct: DCLK1-FL1Δ (residues 50-686); 8XHis tag with TEV protease cleavage site (N); made in house; host or cells: Escherichia coli C41(DE3)
T3 sequence (O15075 50-686 isoform O15075-2 D511N): T2 sequence (O15075 50-686 isoform O15075-2) with D462N
Procedure: Tubulin polymerisation assays were performed in buffer containing 80 mM PIPES at pH 6.9, 2.0 mM MgCl2, 0.5 mM EGTA, 2.5 mM β,γ-Methyleneguanosine 5’-triphosphate, and 10 μM tubulin and 5 μM DCLK1 for 1 h at 37 °C. For tubulin polymerisation in the presence of inhibitors, various concentrations of the inhibitors were first incubated with DCLK1 and allowed to stand on ice for 5 min before adding this mix to the tubulin polymerisation reaction. Following the tubulin polymerisation, the reaction mix was pelleted at 20,000 g for 20 min and the supernatant and the pellet fractions were run on a 12% SDS gel. The data shown are representative of two independent experiments.

[2] = read-out: koff, kinetic fitting

COc1cc(N2CCN(C)CC2)ccc1Nc1ncc2c(n1)N(C)c1ccccc1C(=O)N2CC(F)(F)F [DCLK1-IN-1]
kon, kinetic fitting (DCLK1-FL1Δ D511N): 5.1 ± 0.3 1/Ms (x 10^5) | off-rate faster relative to FMF-03-055-01 or XMD8-85 (DCLK1-FL1Δ D511N; SPR): ~ 2 fold | on-rate slower relative to FMF-03-055-01 or XMD8-85 (DCLK1-FL1Δ D511N; SPR): ~ 2 fold | affinity weaker than FMF-03-055-01 or XMD8-85 (DCLK1-FL1Δ D511N; SPR KD, DCLK1-FL1Δ D511N): 4−5 fold | Kd (DCLK1-FL1Δ D511N; SPR, read-out: KD, kinetic fitting (1:1 binding model)): 53 nM | Kd (DCLK1-FL1Δ D511N; SPR, read-out: KD, steady state fitting): 70 ± 4 nM | reduction in DCLK1 affinity compared to FMF-03-055-1 (DCLK1-FL1Δ D511N; discussion statement): five-fold reduction | koff (DCLK1-FL1Δ D511N; [2]): 0.027 ± 0.001 s⁻¹ | kon (DCLK1-FL1Δ D511N; read-out: kon (Fig. 5c)): 510000 ± 30000 M⁻¹ s⁻¹ | kon, kinetic fitting (DCLK1-FL1Δ WT): 6 ± 2 1/Ms (x 10^5) | Kd (DCLK1-FL1Δ WT; read-out: KD, kinetic fitting (1:1 binding model)): 83 ± 22 nM | Kd (DCLK1-FL1Δ WT; read-out: KD, steady state fitting): 145 ± 35 nM | koff (DCLK1-FL1Δ WT; [2]): 0.04 ± 0.01 s⁻¹ | Kd (DCLK1-KD): 55 nM and 109 nM | effect on DCLK1-FL1Δ D511N ability to polymerise tubulin ([1]; 20 μM or 40 μM, pelleting / SDS-PAGE (Fig. 5d)): did not impact | aggregation and pelleting of DCLK1-FL1Δ D511N upon centrifugation ([1]; 40 μM, without tubulin polymerisation (Fig. 5d lanes 12, 13)): does not cause
